Measurements taken from ChEMBL document CHEMBL1201862, “PubChem BioAssay data set” (2004).
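How tested: cells in 96-well plates exposed to compound for 48 hours at five concentrations. GI50 = concentration required for 50% inhibition of growth.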 Active and inactive are the calls of the source. No stated cut-off is given here; in the data, active = GI50 up to about 1.1 µM and inactive = higher.

Legend:
Assay in all cases: NCI-60 cell line screen, 48 h
ACHN = test system: ACHN
COLO 205 = test system: COLO 205
HCT-15 = test system: HCT-15
HOP-62 = test system: HOP-62
HOP-92 = test system: HOP-92
HT-29 = test system: HT-29
IGROV-1 = test system: IGROV-1
MCF7 = test system: MCF7
MDA-MB-231 = test system: MDA-MB-231
MDA-MB-435 = test system: MDA-MB-435
MOLT-4 = test system: MOLT-4
Malme-3M = test system: Malme-3M
NCI-H460 = test system: NCI-H460
NCI/ADR-RES = test system: NCI/ADR-RES
OVCAR-3 = test system: OVCAR-3
OVCAR-8 = test system: OVCAR-8
RXF 393 = test system: RXF 393
SNB-19 = test system: SNB-19
SR = test system: SR
HCC 2998 = test system: HCC 2998

SMILES	GI50 (ACHN)	GI50 (COLO 205)	GI50 (HCT-15) [µM]	GI50 (HOP-62)	GI50 (HOP-92)	GI50 (HT-29)	GI50 (IGROV-1)	GI50 (MCF7)	GI50 (MDA-MB-231)	GI50 (MDA-MB-435)	GI50 (MOLT-4)	GI50 (Malme-3M)	GI50 (NCI-H460)	GI50 (NCI/ADR-RES)	GI50 (OVCAR-3)	GI50 (OVCAR-8)	GI50 (RXF 393)	GI50 (SNB-19)	GI50 (SR)	GI50 (HCC 2998)
O=C(O)c1nc2nc(Cl)c(Cl)nc2[nH]1	> 100 µM (inactive)	> 100 µM (inactive)	> 100	> 100 µM (inactive)	> 100 µM (inactive)	> 100 µM (inactive)	> 100 µM (inactive)	> 100 µM (inactive)	> 100 µM (inactive)	> 100 µM (inactive)	> 100 µM (inactive)	> 100 µM (inactive)	> 100 µM (inactive)	> 100 µM (inactive)	> 100 µM (inactive)	> 100 µM (inactive)	> 100 µM (inactive)	> 100 µM (inactive)	> 100 µM (inactive)	
O=C1CCC(Cc2ccc(Cl)cc2Cl)C(=O)N1 (stereo not drawn)	> 100 µM (inactive)	> 100 µM (inactive)	82.8	> 100 µM (inactive)	> 100 µM (inactive)	> 100 µM (inactive)	> 100 µM (inactive)	> 100 µM (inactive)	51.8 µM (inactive)	> 100 µM (inactive)	59.7 µM (inactive)	> 100 µM (inactive)	> 100 µM (inactive)	> 100 µM (inactive)	> 100 µM (inactive)	> 100 µM (inactive)	32 µM (inactive)	> 100 µM (inactive)	> 100 µM (inactive)	
Cc1sc(NC=C2C(=O)CC(C)(C)CC2=O)nc1-c1ccccc1	> 100 µM (inactive)	> 100 µM (inactive)	> 100	> 100 µM (inactive)	> 100 µM (inactive)	> 100 µM (inactive)	> 100 µM (inactive)	> 100 µM (inactive)	> 100 µM (inactive)	> 100 µM (inactive)	> 100 µM (inactive)		> 100 µM (inactive)	> 100 µM (inactive)	> 100 µM (inactive)	> 100 µM (inactive)	> 100 µM (inactive)	> 100 µM (inactive)	> 100 µM (inactive)	> 100 µM (inactive)
O=C(CC(C(=O)c1ccsc1)c1cccs1)c1ccsc1 (stereo not drawn)	42 µM (inactive)	45.1 µM (inactive)	45.6	> 100 µM (inactive)		63.1 µM (inactive)	> 100 µM (inactive)	39 µM (inactive)	92 µM (inactive)	34.8 µM (inactive)	28.5 µM (inactive)	56.8 µM (inactive)	53.8 µM (inactive)	17.5 µM (inactive)		60.5 µM (inactive)		> 100 µM (inactive)	27.4 µM (inactive)	> 100 µM (inactive)
CO[C@]12CC(=O)C3(C(C[C@H]4CC5CC[C@H]6C[C@@H](OC(C)=O)CC[C@]6(OC(C)=O)C5C[C@@]43C)C1)C1C[C@H]3[C@@H]4CC[C@H]5C[C@@H](OC(C)=O)CC[C@]5(OC(C)=O)[C@H]4CC[C@]3(C)C12 (stereo partly drawn)	> 100 µM (inactive)	40.5 µM (inactive)	90.2	> 100 µM (inactive)	> 100 µM (inactive)	82.4 µM (inactive)	> 100 µM (inactive)	80.5 µM (inactive)	> 100 µM (inactive)	56 µM (inactive)	51.1 µM (inactive)	> 100 µM (inactive)	66.5 µM (inactive)	43.6 µM (inactive)	> 100 µM (inactive)	46 µM (inactive)		82.8 µM (inactive)	> 100 µM (inactive)	59.2 µM (inactive)
CCCCOC(=O)NC(Nc1cccc(C(F)(F)F)c1)(C(F)(F)F)C(F)(F)F	47.4 µM (inactive)	45.7 µM (inactive)	45.2	> 100 µM (inactive)	23.9 µM (inactive)	50.8 µM (inactive)	49.5 µM (inactive)	59.4 µM (inactive)	> 100 µM (inactive)	33.8 µM (inactive)	34.8 µM (inactive)	29.2 µM (inactive)	32.7 µM (inactive)	45.3 µM (inactive)	56 µM (inactive)	57.4 µM (inactive)	50.7 µM (inactive)	> 100 µM (inactive)	23.1 µM (inactive)	
CCOc1ccc2c(c1)NC(=O)C(C1OC(c3ccccc3)=CC1=O)S2 (stereo not drawn)	37.2 µM (inactive)	14 µM (inactive)	21.8	53.2 µM (inactive)		20.2 µM (inactive)	17 µM (inactive)	16.2 µM (inactive)	25.1 µM (inactive)	18.5 µM (inactive)		21.1 µM (inactive)	16.3 µM (inactive)	24.9 µM (inactive)	20.1 µM (inactive)	22.5 µM (inactive)	19.7 µM (inactive)	59.8 µM (inactive)	15.7 µM (inactive)	14.4 µM (inactive)
CC(C)(C)OC(=O)n1c(-c2ccccc2F)cc(=O)c2cc3c(cc21)OCO3	0.186 µM (active)	0.0942 µM (active)	0.0505	0.0863 µM (active)	7.24 µM (inactive)	0.0497 µM (active)		0.0413 µM (active)	3.68 µM (inactive)	0.0214 µM (active)	0.106 µM (active)	0.0526 µM (active)	0.0656 µM (active)	0.0231 µM (active)	0.03 µM (active)	0.0906 µM (active)		0.145 µM (active)	0.0327 µM (active)	0.0715 µM (active)
NCCC(N)C(=O)O (stereo not drawn)	> 100 µM (inactive)	> 100 µM (inactive)	> 100	> 100 µM (inactive)	> 100 µM (inactive)	> 100 µM (inactive)	> 100 µM (inactive)	> 100 µM (inactive)	> 100 µM (inactive)	> 100 µM (inactive)	> 100 µM (inactive)	> 100 µM (inactive)	> 100 µM (inactive)	> 100 µM (inactive)	> 100 µM (inactive)	> 100 µM (inactive)	> 100 µM (inactive)	> 100 µM (inactive)	> 100 µM (inactive)	
Cc1ccc(-c2nnc(CCCCCCCCc3nnc(-c4ccc(C)cc4O)n3N)n2N)c(O)c1	> 100 µM (inactive)	> 100 µM (inactive)	> 100		9.71 µM (inactive)		> 100 µM (inactive)	> 100 µM (inactive)	> 100 µM (inactive)	> 100 µM (inactive)	33 µM (inactive)	> 100 µM (inactive)	> 100 µM (inactive)	> 100 µM (inactive)	> 100 µM (inactive)	> 100 µM (inactive)		61.8 µM (inactive)	> 100 µM (inactive)	> 100 µM (inactive)
S=C1NC2=C(COC/C2=C\c2ccccc2Cl)C(c2ccccc2Cl)N1 (stereo not drawn)	34.4 µM (inactive)	18.5 µM (inactive)	16.8	61.4 µM (inactive)	36.4 µM (inactive)		39.1 µM (inactive)	16.4 µM (inactive)	> 100 µM (inactive)	25.7 µM (inactive)	7.5 µM (inactive)		18.8 µM (inactive)	21.2 µM (inactive)	32.1 µM (inactive)	29.8 µM (inactive)	33.3 µM (inactive)	50.5 µM (inactive)	2.84 µM (inactive)	6.98 µM (inactive)
CCOC(=O)NC(Nc1ccc(S(=O)(=O)Nc2ncccn2)cc1)(C(=O)OCC)C(F)(F)F (stereo not drawn)	> 100 µM (inactive)	> 100 µM (inactive)	> 100	> 100 µM (inactive)	> 100 µM (inactive)	> 100 µM (inactive)	> 100 µM (inactive)	0.279 µM (active)	> 100 µM (inactive)	> 100 µM (inactive)	> 100 µM (inactive)	> 100 µM (inactive)	> 100 µM (inactive)	> 100 µM (inactive)	> 100 µM (inactive)	> 100 µM (inactive)		> 100 µM (inactive)	> 100 µM (inactive)	> 100 µM (inactive)
CC(=O)c1sc(Nc2ccc(Cl)c(Cl)c2)nc1C	70.6 µM (inactive)	> 100 µM (inactive)	93.8	69.2 µM (inactive)		76.4 µM (inactive)	> 100 µM (inactive)	37.9 µM (inactive)	21 µM (inactive)	> 100 µM (inactive)	14.8 µM (inactive)	> 100 µM (inactive)	> 100 µM (inactive)	> 100 µM (inactive)	29.8 µM (inactive)	> 100 µM (inactive)	55.3 µM (inactive)	> 100 µM (inactive)	60.3 µM (inactive)	> 100 µM (inactive)
COC(=O)CCC(C)C1CCC2C3C(C[C@H](OC(C)=O)[C@]12C)[C@@]1(C)CCC2(C[C@H]1C[C@H]3OC(C)=O)OOC1(CC[C@]3(C)C4C[C@H](OC(C)=O)[C@]5(C)C(C(C)CCC(=O)OC)CCC5C4[C@H](OC(C)=O)C[C@@H]3C1)OO2 (stereo partly drawn)	33.5 µM (inactive)	> 100 µM (inactive)	> 100	> 100 µM (inactive)		> 100 µM (inactive)	> 100 µM (inactive)	> 100 µM (inactive)	> 100 µM (inactive)	> 100 µM (inactive)	48.4 µM (inactive)	> 100 µM (inactive)	50.7 µM (inactive)	> 100 µM (inactive)	> 100 µM (inactive)	> 100 µM (inactive)	> 100 µM (inactive)	> 100 µM (inactive)	44.3 µM (inactive)	> 100 µM (inactive)
O=C(c1ccc([N+](=O)[O-])cc1)C(Br)C(Br)c1ccnc2ccccc12 (stereo not drawn)	4.61 µM (inactive)	13 µM (inactive)	6.76	13.9 µM (inactive)	13.8 µM (inactive)	2.9 µM (inactive)	13.7 µM (inactive)	2.39 µM (inactive)	13.1 µM (inactive)	2.98 µM (inactive)	2.94 µM (inactive)	12.5 µM (inactive)	4.5 µM (inactive)	8.45 µM (inactive)	6.32 µM (inactive)	9.08 µM (inactive)	8.93 µM (inactive)	5.98 µM (inactive)	2.24 µM (inactive)	
